US8372839B2, “Bipartite inhibitors of bacterial RNA polymerase” (priority 2005, dated 2013)
Starred links: 1 amine or outer side, 2 acyl side, 3 side chain; linkers in the order of their positions; H or OH if unused. Positions of bridges follow the written chain, without caps; N, C: chain ends. Non-standard residues stand in square brackets, D forms with d. Residues, ends and D or L forms follow the SMILES beside them. *: point of attachment. X2 = CO[C@H]1/C=C/O[C@@]2(C)Oc3c(C)c(O)c4c(O)c(cc(OCC(=O)NCCCCCCCCCCCCN*)c4c3C2=O)NC(=O)/C(C)=C\C=C\[C@H](C)[C@H](O)[C@@H](C)[C@@H](O)[C@@H](C)[C@H](OC(C)=O)[C@@H]1C; X1 = N=C(CCCSCC(=O)[*:3])NCCCC[C@H](N[*:1])C(=O)[*:2]

Assays:
Escherichia coli RNAP = biological target: T1, Escherichia coli RNAP (Escherichia coli, UniProt P0A8T7+P0A8V2); assay: biochemical; format: biochemical; details: for inhibition of transcription (in words): transcription assay, RNAP and [Asn516]β-RNAP
T1 construct: made in house
Experimental: RNAP was prepared as described in Niu, et al. (1996) Cell 87, 1123-1134. [Asn516]β-RNAP, a strongly rifamycin-resistant RNAP derivative (see Jin, et al. (1988) J. Mol. Biol. 202, 45-58) was prepared in the same manner, except that plasmid pRL706-516N was used in place of plasmid pREII-NHα. [Plasmid pRL706-516N, which encodes C-terminally hexahistidine tagged [Asn516]β, was constructed from plasmid pRL706 (Severinov, et al. (1997) J. Biol. Chem. 272, 24137-24140) by use of site-directed mutagenesis (QuikChange Site-Directed Mutagenesis Kit; Stratagene).]
RNAP or [Asn516]β-RNAP (3 fmol; Example 3.1) and each test compound (250 fmol-100 pmol) were pre-equilibrated 30 min at 37° C. in 15 μl buffer A (50 mM Tris-HCl, pH 8.0, 100 mM KCl, 10 mM MgCl2, 1 mM dithiothreitol, 10 ug/ml bovine serum albumin, and 5% glycerol). To the reaction mixture, was added 1 μl of 1 μM DNA fragment comprising positions −60 to +46 of the bacteriophage T5 N25 promoter (1 pmol; prepared as in Revyakin, et al. (2006) Science, in press), and, following incubation 15 min at 37° C., RNA synthesis was initiated by addition of […] of 6.7 mM ATP and 30 μM α[^32P]-UTP (0.6 Bq/fmol). Following 10 min at 37° C., the reaction was terminated by addition of 10/j 80% formamide, 10 mM EDTA, 0.04% bromophenol blue, and 0.04% xylene cyanol. Reaction products were heated […] at 90° C. and were analyzed by urea-PAGE (Sambrook, et al. (2001) Molecular Cloning: A Laboratory Manual, CSHL Press, Cold Spring Harbor, N.Y.), and quantified using a storage-phosphor scanner.

[1] = system: Escherichia coli strain D21 f2/tolC; assay: Susceptibility assay (spot on top agar); format: cell-based; details: for lowest concentration of test compound solution resulting in detectable inhibition of bacterial growth: 2.5 μl aliquots spotted, 12 h at 37° C.
Experimental: Aliquots (2.5 μl) of 1.56, 3.12, 6.25, 12.5, 25, 50, 100, 200, and 400 μM solutions of a test compound were spotted on plates containing Escherichia coli strain D21 f2/tolC (Fralick, et al. (1994) J. Bacteriol. 176, 6404-6406; ˜10^8 cells) in LB top agar (Sambrook, et al. (2001) Sambrook, et al. (2001) Molecular Cloning. A Laboratory Manual, CSHL Press, Cold Spring Harbor, N.Y.; 3.5 ml) overlaid on LB agar (Sambrook, et al. (2001) Sambrook, et al. (2001) Molecular Cloning: A Laboratory Manual, CSHL Press, Cold Spring Harbor, N.Y.; 25 ml).

[Asn516]β-RNAP = [Asn516]β-RNAP (Escherichia coli, UniProt P0A8T7+P0A8V2, D516N)
Experimental: Following 10 min at 37° C., the reaction was terminated by addition of 10/j 80% formamide, 10 mM EDTA, 0.04% bromophenol blue, and 0.04% xylene cyanol.

With `CC[C@H](C)[C@H](NC(=O)CNC(=O)[C@@H](NC(=O)[C@H](Cc1ccccc1)NC(=O)[C@H](Cc1ccc(O)cc1)NC(=O)[C@@H]1CCC(=O)NCC(=O)NCC(=O)N[C@@H](C)C(=O)NCC(=O)N[C@@H](CCCCNC(=N)CCCSCC(=O)NCCCCCCCCCCCCNC(=O)COc2cc3c(O)c4c(O)c(C)c5c(c24)C(=O)[C@@](C)(O/C=C/[C@H](OC)[C@@H](C)[C@@H](OC(C)=O)[C@H](C)[C@H](O)[C@H](C)[C@@H](O)[C@@H](C)/C=C/C=C(/C)C(=O)N3)O5)C(=O)N[C@@H](C(C)C)C(=O)N2CCC[C@H]2C(=O)N1)C(C)C)C(=O)NCC(=O)N[C@H](C(=O)N1CCC[C@H]1C(=O)N[C@H](C(=O)N[C@@H](CO)C(=O)N[C@@H](Cc1ccccc1)C(=O)N[C@@H](Cc1ccc(O)cc1)C(=O)NCC(=O)O)[C@@H](C)CC)[C@@H](C)O` [rifamicrocin 1-12, {rifamycin SV}—{CH2C(O)NH(CH2)12NHC(O)CH2S(CH2)3C(NH2^+)}-{[Lys5]microcin J25}] (GGAG[X1](X2)VPEYFVGIGTPISFYG-OH; lactam N-8 (inferred); C-terminus assumed) the IC50 (Escherichia coli RNAP) was 2 nM and the “inhibition of transcription (in words)” value (Escherichia coli RNAP) was “potently to inhibit transcription”.

`CO[C@H]1/C=C/O[C@@]2(C)Oc3c(C)c([O-])c4c(O)c(cc(O)c4c3C2=O)NC(=O)/C(C)=C\C=C\[C@H](C)[C@H](O)[C@@H](C)[C@@H](O)[C@@H](C)[C@H](OC(C)=O)[C@@H]1C.[Na+]` [rifamycin SV, reference compound] was tested, and the “lowest concentration of test compound solution resulting in detectable inhibition of bacterial growth” value [1] was 50 µM.

With “{Rifamycin SV}—{CH2C(O)NH(CH2)nNHC(O)CH2S(CH2)3C(NH2^+)}-{[Lys5]MccJ25} [rifamicrocin 1-6]” the “inhibition of transcription (in words)” value (Escherichia coli RNAP) was “potently to inhibit transcription”.

With “{Rifamycin SV}—{CH2C(O)NH(CH2)nNHC(O)CH2S(CH2)3C(NH2^+)}-{[Lys5]MccJ25} [rifamicrocin 1-8]” the “inhibition of transcription (in words)” value (Escherichia coli RNAP) was “potently to inhibit transcription”.

“{Rifamycin SV}—{CH2C(O)NH(CH2)nNHC(O)CH2S(CH2)3C(NH2^+)}-{[Lys5]MccJ25} [rifamicrocin 1-10]” was tested, and the “lowest concentration of test compound solution resulting in detectable inhibition of bacterial growth” value [1] was 12.5 µM, the “potency on bacterial growth relative to rifamycin SV” value ([1]; vs rifamycin SV) was ~4 times higher and the “inhibition of transcription (in words)” value (Escherichia coli RNAP) was “potently to inhibit transcription”.

With “{rifamycin SV}—{CH2C(O)NH(CH2)10NHC(O)(CH2)2(C2N3)(CH2)4C(O)}-{[Lys5]microcin J25} [rifamicrocin 2-10]” the “inhibition of transcription (in words)” value (Escherichia coli RNAP) was “potently to inhibit transcription” and the “potency relative to prior-art rifamycin B, [Asn516]β-RNAP” value ([Asn516]β-RNAP) was “approximately 2 times higher”.
